Here are results for eleven molecules from patent publication US20250326742A1, “THERAPEUTIC COMPOUNDS” (RUTGERS, THE STATE UNIVERSITY OF NEW JERSEY, priority 2024, published 2025).

Data set [1] concerns the target SARS-CoV-2 PLpro (Severe acute respiratory syndrome coronavirus 2, UniProt P0DTD1). In words: biochemical. To be noted: 200 nM PLpro, 10 μM FRET substrate, 30 min preincubation at 30° C. On the procedure:
FRET-Based PL^pro Enzymatic Assay
The SARS-CoV-2 PL^pro enzymatic assays were carried out as follows: The assay was assembled in 96-well plates with 100 μl of 200 nM PL^Pro protein in PL^Pro reaction buffer [50 mM Hepes (pH 7.5), 0.01% Triton X-100, and 5 mM DTT]. Then, 1 μl of testing compound at various concentrations was added to each well and incubated at 30° C. for 30 minutes. The enzymatic reaction was initiated by adding 1 μl of 1 mM FRET substrate (the final substrate concentration is 10 μM). The reaction was monitored in a Cytation 5 image reader with filters for excitation at 360/40 nm and emission at 460/40 nm at 30° C. for 1 hour. The initial velocity of the enzymatic reaction with and without testing compounds was calculated by linear regression for the first 15 minutes of the kinetic progress curve. The ICso values were calculated by plotting the initial velocity against various concentrations of testing compounds with a dose-response function in Prism 8 software.

In data set [2] the test system is Vero E6 cells. In words: Cytotoxicity assay in Vero E6 cells (neutral red uptake). To be noted: 2 days at 37° C. It is filed as cell-based. On the procedure: (§1) Cytotoxicity Assay in Vero E6 Cells
(§2) Briefly, 80,000 cells/ml of the tested cell lines were dispensed into 96-well cell culture plates at 100 μl per well. Twenty-four hours later, the growth medium was removed and washed with 150 μl of PBS buffer. Two hundred microliters of fresh serum-free medium containing serial diluted compounds was added to each well. After incubating for 2 days at 37° C., the medium was removed and replaced with 100 μl of DMEM medium containing neutral red (40 μg/ml) and incubated for 2 to 4 hours at 37° C. The amount of neutral red taken up was determined by measuring the absorbance at 540 nm using a Multiskan FC Microplate Photometer (Thermo Fisher Scientific). The CC50 values were calculated from best-fit dose-response curves with variable slope in Prism 8.

In data set [3] the test system is SARS-CoV-2 viral replication. To be noted: cited from earlier work.
Data set [4] can be described thus: Cytotoxicity assay in Vero E6 cells (neutral red uptake). The data set is classed as cell-based. The following applies: African green monkey, 2 days at 37° C. The procedure:
as §1, §2

One may read the IC50 as the concentration that gives 50% inhibition. A higher IC50 goes with weaker potency. Broadly, the CC50 is the concentration that lowers cell viability or growth by half. For orientation: EC50 means the concentration giving half of the maximal effect.

“(R)-2-(3-((2-Cyanoethyl)amino)-3-oxopropyl)-N-(1-(3-(1-ethyl-1H-pyrazol-3-yl)-5-(1-methyl-1H-pyrazol-4-yl)phenyl)ethyl)benzamide [Example 1]”: in data set [1], the IC50 is more than 5 µM. Further, the midpoint of cytotoxicity in data set [2], the CC50, lay at 146 µM. Turning to `Cc1ccc(N)cc1C(=O)N[C@H](C)c1cccc2ccccc12` [GRL0617], the EC50 in data set [3] is approximately 20 µM. In the case of `CCn1ccc(-c2cc(-c3cnn(C)c3)cc([C@@H](C)NC(=O)c3ccccc3CCC(=O)NNC(=O)/C=C/C(=O)N(C)C)c2)n1` [Example 12, (R,E)-2-(3-(2-(4-(Dimethylamino)-4-oxobut-2-enoyl)hydrazineyl)-3-oxopropyl)-N-(1-(3-(1-ethyl-1H-pyrazol-3-yl)-5-(1-methyl-1H-pyrazol-4-yl)phenyl)ethyl)benzamide], the IC50 in data set [1] is less than 1 µM. Moreover, in data set [4], the CC50 at 2 days was more than 500 µM.

In data set [1], `CCn1ccc(-c2cc(-c3cnn(C)c3)cc([C@@H](C)NC(=O)c3ccccc3CCC(=O)NNC(=O)/C=C/C(=O)N3CC(F)C3)c2)n1` [Example 21, (R,E)-N-(1-(3-(1-ethyl-1H-pyrazol-3-yl)-5-(1-methyl-1H-pyrazol-4-yl)phenyl)ethyl)-2-(3-(2-(4-(3-fluoroazetidin-1-yl)-4-oxobut-2-enoyl)hydrazineyl)-3-oxopropyl)benzamide] registered a half-inhibitory concentration (IC50) of less than 1 µM. Besides, the CC50 at 2 days in data set [4] was more than 500 µM. Take `CCn1ccc(-c2cc(-c3cnn(C)c3)cc([C@@H](C)NC(=O)c3ccccc3CCC(=O)NNS(=O)(=O)C(Cl)Cl)c2)n1` [Example 11, (R)-2-(3-(2-((dichloromethyl)sulfonyl)hydrazineyl)-3-oxopropyl)-N-(1-(3-(1-Ethyl-1H-pyrazol-3-yl)-5-(1-methyl-1H-pyrazol-4-yl)phenyl)ethyl)benzamide]: in data set [1], the IC50 was more than 5 µM. For the same molecule, the half-maximal cytotoxic concentration (CC50) at 2 days in data set [4] is more than 250 µM. On to `CCn1ccc(-c2cc(-c3cnn(C)c3)cc(C3(NC(=O)c4ccccc4CNC(=O)CNC(=O)/C=C/C(=O)N4CC(F)(F)C4)CC3)c2)n1` [Example 24, (E)-2-((2-(4-(3,3-difluoroazetidin-1-yl)-4-oxobut-2-enamido)-acetamido)methyl)-N-(1-(3-(1-ethyl-1H-pyrazol-3-yl)-5-(1-methyl-1H-pyrazol-4-yl)phenyl)cyclopropyl)benzamide], for which, in data set [1], the IC50 lay in the range of 1 to 5 µM. In addition, the CC50 at 2 days in data set [4] was more than 500 µM. The like results for `C=CC(=O)NCC(=O)NCc1ccccc1C(=O)N[C@H](C)c1cc(-c2cnn(C)c2)cc(-c2ccn(C)n2)c1` [Example 29, (R)-2-((2-acrylamidoacetamido)methyl)-N-(1-(3-(1-methyl-1H-pyrazol-3-yl)-5-(1-methyl-1H-pyrazol-4-yl)phenyl)ethyl)benzamide] were, in that order, more than 5 µM and more than 500 µM. For `CCn1ccc(-c2cc(-c3cnn(C)c3)cc([C@@H](C)NC(=O)c3ccccc3CCC(=O)NCC(=O)CF)c2)n1` [Example 28, (R)-N-(1-(3-(1-ethyl-1H-pyrazol-3-yl)-5-(1-methyl-1H-pyrazol-4-yl)phenyl)ethyl)-2-(3-((3-fluoro-2-oxopropyl)amino)-3-oxopropyl)benzamide], the half-maximal inhibitory concentration (IC50) in data set [1] was more than 5 µM. Besides, the CC50 at 2 days in data set [4] was more than 250 µM. The like results for `CCOC(=O)/C=C/C(=O)NCC(=O)NCc1ccccc1C(=O)NC1(c2cc(-c3cnn(C)c3)cc(-c3ccn(CC)n3)c2)CC1` [Example 23, ethyl (E)-4-((2-((2-((1-(3-(1-ethyl-1H-pyrazol-3-yl)-5-(1-methyl-1H-pyrazol-4-yl)phenyl)cyclopropyl)carbamoyl)benzyl)amino)-2-oxoethyl)amino)-4-oxobut-2-enoate] were, in that order, 1 to 5 µM and more than 500 µM. The like results for `CCn1ccc(-c2cc(-c3cnn(C)c3)cc([C@@H](C)NC(=O)c3ccccc3CCC(=O)NNC(=O)C(Cl)Cl)c2)n1` [Example 3, (R)-2-(3-(2-(2,2-Dichloroacetyl)hydrazineyl)-3-oxopropyl)-N-(1-(3-(1-ethyl-1H-pyrazol-3-yl)-5-(1-methyl-1H-pyrazol-4-yl)phenyl)ethyl)benzamide] were, in that order, 1 to 5 µM and more than 500 µM. The corresponding values for `C[C@@H](NC(=O)c1ccccc1CNC(=O)CNC(=O)CC#N)c1cc(-c2cnn(C)c2)cc(-c2ccn(C)n2)c1` [Example 31, (R)-2-((2-(2-cyanoacetamido)acetamido)methyl)-N-(1-(3-(1-methyl-1H-pyrazol-3-yl)-5-(1-methyl-1H-pyrazol-4-yl)phenyl)ethyl)benzamide] are more than 5 µM and more than 500 µM.
